Where a name gives a salt, the structure may show the parent alone.
Target: full-length USP7 (Homo sapiens (Human), UniProt Q93009)
Experiment: Enzymatic assay to determine IC50 of USP7 inhibitors (Ubiquitin-Rhodamine 110 cleavage)
Type: biochemical
Conditions: for IC50: 0.5 nM USP7, 0.5 μM Ubiquitin-Rhodamine 110, 45 min at 37° C.; for inhibition at 1 µM: at 1 μM of the test compound, given where IC50 not determined yet, read-out: percent value of inhibition of USP7 activity
Procedure, shortened: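 Full-length USP7 (0.5 nM) in 50 mM HEPES pH 7.5, 150 mM NaCl, 1 mM DTT, 1 mg/ml BSA, 0.05% Tween20 was preincubated 15 min with DTT at room temperature before compound addition.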

Sequence of full-length USP7 (Q93009 whole entry): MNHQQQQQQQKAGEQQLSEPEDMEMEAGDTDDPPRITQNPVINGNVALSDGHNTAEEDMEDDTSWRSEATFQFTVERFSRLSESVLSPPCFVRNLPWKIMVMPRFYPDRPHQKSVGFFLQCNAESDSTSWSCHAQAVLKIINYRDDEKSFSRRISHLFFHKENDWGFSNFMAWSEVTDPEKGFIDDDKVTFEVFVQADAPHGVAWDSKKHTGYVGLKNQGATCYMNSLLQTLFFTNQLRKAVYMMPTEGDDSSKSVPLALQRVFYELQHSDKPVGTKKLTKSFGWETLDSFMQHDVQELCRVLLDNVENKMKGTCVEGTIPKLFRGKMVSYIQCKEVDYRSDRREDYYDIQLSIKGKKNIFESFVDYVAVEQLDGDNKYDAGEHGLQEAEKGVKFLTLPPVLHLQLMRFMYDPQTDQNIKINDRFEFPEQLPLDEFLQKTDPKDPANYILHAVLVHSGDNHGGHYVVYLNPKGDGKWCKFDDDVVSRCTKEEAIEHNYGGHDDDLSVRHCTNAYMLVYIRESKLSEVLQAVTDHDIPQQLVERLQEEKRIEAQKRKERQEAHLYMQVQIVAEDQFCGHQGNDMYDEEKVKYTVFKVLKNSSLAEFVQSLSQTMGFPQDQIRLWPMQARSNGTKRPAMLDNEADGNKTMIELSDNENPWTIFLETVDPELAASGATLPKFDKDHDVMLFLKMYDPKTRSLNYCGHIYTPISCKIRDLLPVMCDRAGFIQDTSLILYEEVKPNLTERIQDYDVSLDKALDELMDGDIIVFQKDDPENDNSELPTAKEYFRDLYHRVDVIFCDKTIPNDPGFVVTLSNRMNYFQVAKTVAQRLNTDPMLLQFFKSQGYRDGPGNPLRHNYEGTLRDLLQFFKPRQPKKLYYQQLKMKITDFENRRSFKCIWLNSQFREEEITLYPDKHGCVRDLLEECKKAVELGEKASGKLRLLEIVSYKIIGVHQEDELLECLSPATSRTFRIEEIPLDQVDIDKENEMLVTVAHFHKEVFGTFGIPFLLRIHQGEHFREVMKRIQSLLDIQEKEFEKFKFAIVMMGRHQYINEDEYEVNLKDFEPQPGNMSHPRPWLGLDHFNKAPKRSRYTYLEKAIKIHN

With Cc1cc(C(F)(F)F)nc(-c2ccnc3cc(CN4C(=O)C5C(C4=O)C5(C)C)sc23)c1CN1CC[C@@H]2CNC[C@@H]21 (stereo partly drawn) [Example 159, 3-((7-(3-(((3aR,6aR)-hexahydropyrrolo[3,4-b]pyrrol-1(2H)-yl)methyl)-4-methyl-6-(trifluoromethyl)pyridin-2-yl)thieno[3,2-b]pyridin-2-yl)methyl)-6,6-dimethyl-3-azabicyclo[3.1.0]hexane-2,4-dione trihydrochloride] the IC50 was < 500 nM.
CN[C@H]1CCN(Cc2c(C)cc(C(F)(F)F)nc2-c2ccnc3cc(CN4C(=O)C5C(C4=O)C5(C)C)sc23)C1 (stereo partly drawn) [Example 160, 6,6-dimethyl-3-((7-(4-methyl-3-(((S)-3-(methylamino)pyrrolidin-1-yl)methyl)-6-(trifluoromethyl)pyridin-2-yl)thieno[3,2-b]pyridin-2-yl)methyl)-3-azabicyclo[3.1.0]hexane-2,4-dione hydrochloride] was tested, and the IC50 was < 500 nM.
Compound CC1(C)C2C(=O)N(Cc3cc4nccc(-c5cc(Cl)cnc5O[C@H]5CCCNC5)c4s3)C(=O)C21 (stereo partly drawn) [Example 161, 3-((7-(5-chloro-2-(((S)-piperidin-3-yl)oxy)pyridin-3-yl)thieno[3,2-b]pyridin-2-yl)methyl)-6,6-dimethyl-3-azabicyclo[3.1.0]hexane-2,4-dione dihydrochloride] has an inhibition at 1 µM of 50 to 70%.
With Cc1c(Cl)cc(-c2ccnc3cc(CN4C(=O)C5C(C4=O)C5(C)C)sc23)n1C[C@@H]1CNCCO1 (stereo partly drawn) [Example 162, 3-((7-(4-chloro-5-methyl-1-(((S)-morpholin-2-yl)methyl)-1H-pyrrol-2-yl)thieno[3,2-b]pyridin-2-yl)methyl)-6,6-dimethyl-3-azabicyclo[3.1.0]hexane-2,4-dione hydrochloride] the IC50 was < 500 nM.
Cc1cc(C(F)(F)F)nc(-c2ccnc3cc(CN4C(=O)C5C(C4=O)C5(C)C)sc23)c1C(=O)N1C[C@@H]2CCN[C@@H]2C1 (stereo partly drawn) [Example 163, 6,6-dimethyl-3-((7-(4-methyl-3-((3aS,6aS)-octahydropyrrolo[3,4-b]pyrrole-5-carbonyl)-6-(trifluoromethyl)pyridin-2-yl)thieno[3,2-b]pyridin-2-yl)methyl)-3-azabicyclo[3.1.0]hexane-2,4-dione hydrochloride] showed an IC50 of 500 to 1000 nM.
CC1(C)C2C(=O)N(Cc3cc4nccc(-c5cc(Cl)cnc5O[C@H]5CCNC5)c4s3)C(=O)C21 (stereo partly drawn) [Example 164, 3-((7-(5-chloro-2-(((S)-pyrrolidin-3-yl)oxy)pyridin-3-yl)thieno[3,2-b]pyridin-2-yl)methyl)-6,6-dimethyl-3-azabicyclo[3.1.0]hexane-2,4-dione dihydrochloride] was tested, and the inhibition at 1 µM was < 20%.
With Cc1cc(C(F)(F)F)nc(-c2ccnc3cc(CN4C(=O)C5C(C4=O)C5(C)C)sc23)c1CC1NCCNC1=O (centres unmarked) [Example 165, 6,6-dimethyl-3-((7-(4-methyl-3-((3-oxopiperazin-2-yl)methyl)-6-(trifluoromethyl)pyridin-2-yl)thieno[3,2-b]pyridin-2-yl)methyl)-3-azabicyclo[3.1.0]hexane-2,4-dione hydrochloride] the inhibition at 1 µM was 20 to 49%.
With CC1(C)C2C(=O)N(Cc3cc4nccc(-c5cc(C(F)(F)F)cnc5CC5NCCNC5=O)c4s3)C(=O)C21 (centres unmarked) [Example 166, 6,6-dimethyl-3-((7-(2-((3-oxopiperazin-2-yl)methyl)-5-(trifluoromethyl)pyridin-3-yl)thieno[3,2-b]pyridin-2-yl)methyl)-3-azabicyclo[3.1.0]hexane-2,4-dione hydrochloride] the inhibition at 1 µM was < 20%.
With Cc1c([N+](=O)[O-])cc(-c2ccnc3cc(CN4C(=O)C5C(C4=O)C5(C)C)sc23)n1C[C@H]1CNCCO1 (stereo partly drawn) [Example 167, 6,6-dimethyl-3-((7-(5-methyl-1-(((R)-morpholin-2-yl)methyl)-4-nitro-1H-pyrrol-2-yl)thieno[3,2-b]pyridin-2-yl)methyl)-3-azabicyclo[3.1.0]hexane-2,4-dione hydrochloride] the IC50 was < 500 nM.
In the case of CN[C@@H]1CN(C(=O)c2c(C)cc(C(F)(F)F)nc2-c2ccnc3cc(CN4C(=O)C5C(C4=O)C5(C)C)sc23)C[C@H]1C (stereo partly drawn) [Example 168, 6,6-dimethyl-3-((7-(4-methyl-3-((3R,4S)-3-methyl-4-(methylamino)pyrrolidine-1-carbonyl)-6-(trifluoromethyl)pyridin-2-yl)thieno[3,2-b]pyridin-2-yl)methyl)-3-azabicyclo[3.1.0]hexane-2,4-dione hydrochloride], the IC50 is reported as < 500 nM.
In the case of Cc1cc(C(F)(F)F)nc(-c2ccnc3cc(CN4C(=O)C5C(C4=O)C5(C)C)sc23)c1C(=O)N1C[C@@H](N)[C@@H](F)C1 (stereo partly drawn) [Example 169, 3-((7-(3-((3R,4S)-3-amino-4-fluoropyrrolidine-1-carbonyl)-4-methyl-6-(trifluoromethyl)pyridin-2-yl)thieno[3,2-b]pyridin-2-yl)methyl)-6,6-dimethyl-3-azabicyclo[3.1.0]hexane-2,4-dione hydrochloride], the IC50 is reported as < 500 nM.
In the case of Cc1cc(C(F)(F)F)nc(-c2ccnc3cc(CN4C(=O)C5C(C4=O)C5(C)C)sc23)c1C(=O)N1C[C@H](N)[C@@H](F)C1 (stereo partly drawn) [Example 170, 3-((7-(3-((3S,4S)-3-amino-4-fluoropyrrolidine-1-carbonyl)-4-methyl-6-(trifluoromethyl)pyridin-2-yl)thieno[3,2-b]pyridin-2-yl)methyl)-6,6-dimethyl-3-azabicyclo[3.1.0]hexane-2,4-dione hydrochloride], the IC50 is reported as < 500 nM.
For Cc1cc(C(F)(F)F)nc(-c2ccnc3cc(CN4C(=O)C5C(C4=O)C5(C)C)sc23)c1C(=O)N1C[C@@H](F)[C@@H](N)C1 (stereo partly drawn) [Example 171, 3-((7-(3-((3S,4R)-3-amino-4-fluoropyrrolidine-1-carbonyl)-4-methyl-6-(trifluoromethyl)pyridin-2-yl)thieno[3,2-b]pyridin-2-yl)methyl)-6,6-dimethyl-3-azabicyclo[3.1.0]hexane-2,4-dione hydrochloride], the inhibition at 1 µM was 50 to 70%.
With Cc1cc(C(F)(F)F)nc(-c2ccnc3cc(CN4C(=O)C5C(C4=O)C5(C)C)sc23)c1C(=O)N1C[C@@H](C)[C@H](N(C)C)C1 (stereo partly drawn) [Example 172, 3-((7-(3-((3S,4R)-3-(dimethylamino)-4-methylpyrrolidine-1-carbonyl)-4-methyl-6-(trifluoromethyl)pyridin-2-yl)thieno[3,2-b]pyridin-2-yl)methyl)-6,6-dimethyl-3-azabicyclo[3.1.0]hexane-2,4-dione hydrochloride] the inhibition at 1 µM was > 70%.
In the case of Cc1cc(C(F)(F)F)nc(-c2ccnc3cc(CN4C(=O)C5C(C4=O)C5(C)C)sc23)c1C(=O)N1C[C@@H](N)C2(CC2)C1 (stereo partly drawn) [Example 173, 3-((7-(3-((S)-7-amino-5-azaspiro[2.4]heptane-5-carbonyl)-4-methyl-6-(trifluoromethyl)pyridin-2-yl)thieno[3,2-b]pyridin-2-yl)methyl)-6,6-dimethyl-3-azabicyclo[3.1.0]hexane-2,4-dione hydrochloride], the IC50 is reported as < 500 nM.
CN[C@H]1CCN(C(=O)c2c(C)cc(C(F)(F)F)nc2-c2ccnc3c(F)c(CN4C(=O)C5C(C4=O)C5(C)C)sc23)C1 (stereo partly drawn) [Example 174, 3-((3-fluoro-7-(4-methyl-3-((S)-3-(methylamino)pyrrolidine-1-carbonyl)-6-(trifluoromethyl)pyridin-2-yl)thieno[3,2-b]pyridin-2-yl)methyl)-6,6-dimethyl-3-azabicyclo[3.1.0]hexane-2,4-dione hydrochloride] was tested, and the inhibition at 1 µM was 50 to 70%.
In the case of Cc1cc(Cl)cc(-c2ccnc3cc(CN4C(=O)C5C(C4=O)C5(C)C)sc23)c1NC1CCNC1 (centres unmarked) [Example 175, 3-((7-(5-chloro-3-methyl-2-(pyrrolidin-3-ylamino)phenyl)thieno[3,2-b]pyridin-2-yl)methyl)-6,6-dimethyl-3-azabicyclo[3.1.0]hexane-2,4-dione hydrochloride], the IC50 is reported as < 500 nM.
With Cc1c(N)cc(-c2ccnc3cc(CN4C(=O)C5C(C4=O)C5(C)C)sc23)n1C[C@@H]1CNCCO1 (stereo partly drawn) [Example 176, 3-((7-(4-amino-5-methyl-1-(((S)-morpholin-2-yl)methyl)-1H-pyrrol-2-yl)thieno[3,2-b]pyridin-2-yl))methyl)-6,6-dimethyl-3-azabicyclo[3.1.0]hexane-2,4-dione hydrochloride] the inhibition at 1 µM was < 20%.
Cc1c(N(C)C)cc(-c2ccnc3cc(CN4C(=O)C5C(C4=O)C5(C)C)sc23)n1C[C@@H]1CNCCO1 (stereo partly drawn) [Example 177, 3-((7-(4-(dimethylamino)-5-methyl-1-(((S)-morpholin-2-yl)methyl)-1H-pyrrol-2-yl)thieno[3,2-b]pyridin-2-yl)methyl)-6,6-dimethyl-3-azabicyclo[3.1.0]hexane-2,4-dione hydrochloride] was tested, and the inhibition at 1 µM was < 20%.
For Cc1cc(Cl)cc(-c2ccnc3cc(CC4NCCNC4=O)sc23)c1O[C@H]1CCCNC1 (stereo partly drawn) [Example 178, 3-((7-(5-chloro-3-methyl-2-(((S)-piperidin-3-yl)oxy)phenyl)thieno[3,2-b]pyridin-2-yl)methyl)piperazin-2-one hydrochloride], the IC50 was < 500 nM.
For Cc1cc(Cl)cc(-c2ccnc3cc(CC4C(=O)NCC4O)sc23)c1O[C@H]1CCCNC1 (stereo partly drawn) [Example 179, 3-((7-(5-chloro-3-methyl-2-(((S)-piperidin-3-yl)oxy)phenyl)thieno[3,2-b]pyridin-2-yl)methyl)-4-hydroxypyrrolidin-2-one 2,2,2-trifluoroacetate], the IC50 was < 500 nM.
“N-(2-(2-((6,6-dimethyl-2,4-dioxo-3-azabicyclo[3.1.0]hexan-3-yl)methyl)thieno[3,2-b]pyridin-7-yl)-4-methyl-6-(trifluoromethyl)pyridin-3-yl)azetidine-3-carboxamide 2,2,2-trifluoroacetate [Example 28]” was tested, and the IC50 was < 500 nM.
In the case of “ethyl 5-(2-((6,6-dimethyl-2,4-dioxo-3-azabicyclo[3.1.0]hexan-3-yl)methyl)thieno[3,2-b]pyridin-7-yl)-2-methyl-1-(((S)-morpholin-2-yl)methyl)-1H-pyrrole-3-carboxylate 2,2,2-trifluoroacetate [Example 148]”, the IC50 is reported as 1000 to 10000 nM.
